pEC50, pIC50: −log10 of the molar value.

Assay [1] has as its target T1, Oxysterols receptor LXR-beta (Homo sapiens, UniProt P55055).
T1 sequence (P55055 whole entry): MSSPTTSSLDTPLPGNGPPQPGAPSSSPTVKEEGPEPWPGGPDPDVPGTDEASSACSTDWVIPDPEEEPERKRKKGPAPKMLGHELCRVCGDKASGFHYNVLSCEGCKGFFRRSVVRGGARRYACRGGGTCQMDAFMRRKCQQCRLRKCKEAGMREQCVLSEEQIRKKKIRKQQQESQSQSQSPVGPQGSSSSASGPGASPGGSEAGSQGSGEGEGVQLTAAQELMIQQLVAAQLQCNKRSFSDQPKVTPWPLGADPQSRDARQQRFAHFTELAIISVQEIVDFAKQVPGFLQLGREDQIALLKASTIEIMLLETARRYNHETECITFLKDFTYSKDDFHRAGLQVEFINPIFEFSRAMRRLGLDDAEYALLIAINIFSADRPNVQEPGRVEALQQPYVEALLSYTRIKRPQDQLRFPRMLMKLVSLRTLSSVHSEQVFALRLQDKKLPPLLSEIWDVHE
Put plainly: Effective concentration in recombinant human LXRbeta ligand binding domain in homogeneous time-resolved fluorescence assay.

Assay [2] deals with T2, Oxysterols receptor LXR-alpha (Homo sapiens, UniProt Q13133).
T2 sequence (Q13133 whole entry): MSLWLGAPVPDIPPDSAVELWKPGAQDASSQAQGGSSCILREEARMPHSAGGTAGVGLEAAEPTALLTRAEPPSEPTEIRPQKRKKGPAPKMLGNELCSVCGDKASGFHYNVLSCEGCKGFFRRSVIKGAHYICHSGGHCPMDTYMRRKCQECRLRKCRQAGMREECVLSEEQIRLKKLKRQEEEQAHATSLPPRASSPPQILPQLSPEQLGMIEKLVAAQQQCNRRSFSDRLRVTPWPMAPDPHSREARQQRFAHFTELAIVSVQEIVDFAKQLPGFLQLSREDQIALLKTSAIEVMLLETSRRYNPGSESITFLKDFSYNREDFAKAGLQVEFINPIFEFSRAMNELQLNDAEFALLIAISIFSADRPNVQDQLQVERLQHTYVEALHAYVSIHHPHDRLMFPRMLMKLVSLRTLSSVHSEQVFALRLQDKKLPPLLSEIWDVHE
As to the kind of experiment: Effective concentration in recombinant human LXRalpha ligand binding domain in homogeneous time-resolved fluorescence assay.

For assay [3], the target named is T1, Oxysterols receptor LXR-beta. Put plainly: Inhibitory concentration in LXRSPA beta binding assay.
Assay [4] deals with T2, Oxysterols receptor LXR-alpha. Put plainly: Inhibitory concentration in LXRSPA alpha binding assay.
Assay [5] addresses T3, Oxysterols receptor LXR-beta (Homo sapiens) (UniProt P55055).
T3 sequence (whole entry): T1 sequence (P55055 whole entry)
Description: TA max fold induction against LXR beta

The target in assay [6] is T4, Oxysterols receptor LXR-alpha (Homo sapiens) (UniProt Q13133).
T4 sequence (whole entry): T2 sequence (Q13133 whole entry)
Description: TA max fold induction against LXR alpha

For orientation: pEC50 means −log10 of the EC50, conventionally taken in molar units. One may read the pIC50 as the IC50 on a negative log10 scale, so that one unit is a factor of ten. The low end stands for a large IC50, the high end for a small IC50. On to `C=CCOC(=O)[C@@]1(C)CCC[C@]2(C)c3cc(O)ccc3CC[C@@H]12`, for which the pEC50 in assay [1] and in assay [2] was less than 4.30 in each case. Further, the pIC50 in assay [3] and in assay [4] was less than 4.82 each time.

On to `CC(=O)Oc1ccc2c(c1)[C@@]1(C)CCCC(C)(C(=O)OC(=O)[C@@]3(C)CCC[C@]4(C)c5cc(OC(C)=O)ccc5CC[C@@H]34)[C@@H]1CC2` (stereo partly specified), for which the Induction in assay [5] was 54; in assay [6], 60.
